The text below walks through data of patent US20230150978A1, “QUINAZOLINONE DERIVATIVES AND USES THEREOF FOR TREATING A CANCER” (ENYO PHARMA, priority 2020, published 2023).

The subject of one test is Calreticulin. The test is described as follows: Calreticulin release (ER to plasma membrane translocation) screen, Nano-Glo HiBiT extracellular detection. To be noted: Homo sapiens, MDA-MB-231, MDA-MB-231 cells stably expressing Calreticulin-HiBiT; extracellular luminescence; read-out: CalR EC50. It is filed as cell-based. The method, then:
Construction of pBiT3.1-Calreticulin Plasmid Calreticulin derived from pCMV6-AC plasmid (ref. SC320287, Origene) was amplified by PCR using the following set of primers: Seq ID No 3: forward, 5′-[…]-3′; Seq ID No 4: reverse, 5′-[…]-3′. The PCR fragment was subsequently digested by EcoRI and XhoI (R3101S and R0146S respectively, New England Biolabs) and inserted between the EcoRI and XhoI sites in the plasmid pBiT3.1-C(ref. N237A, Promega). The resulting plasmid (pBiT3.1-Calreticulin) was grown in NEB10-beta competent E. coli (ref. C3019I, New England Biolabs) and purified using the NucleoBond Xtra Midi Kit (ref. 740410, Macherey-Nagel).
Construction of Calreticulin Reporter Cell Line
pBiT3.1-Calreticulin was transfected in MDA-MB-231 cells (ref. ATCC HTB-2) using Lipofectamine 2000 reagent (ref. 11668, Invitrogen). Transfected cells were selected for blasticidin resistance (15 μg/ml, ref. Al 113903 Gibco) in medium containing DMEM 1× (ref. 1995065, Gibco) with 1% penicillin and streptomycin, and 10% fetal bovine serum.
Screen for Calreticulin-ER to Plasma Membrane Translocating Drugs
MDA-MB-231 cells stably expressing Calreticulin-HiBiT (10^4 cells/well) were seeded into white 96-well plates (ref.3917, Corning) and allowed to recover for 24h. […] Mitoxantrone dihydrochloride (ref. M6545, Sigma-Aldrich) was used as a positive control. Extracellular translocation of Calreticulin was measured using the Nano-Glo HiBiT extracellular detection system (ref. N2422, Promega). Nano-Glo HiBiT Extracellular Reagent was prepared in advance, added to the well and incubated 10 min.
Luminescence of the extracellular Calreticulin-HiBiT was quantified using the Spark 20M spectrofluorimeter (TECAN).
A general note: HiBiT is a short tag that completes a luciferase, so light tracks the accessible tagged protein.

The test system of the next test is HMGB1. The test is described as follows: HMGB1 release screen, Nano-Glo HiBiT extracellular detection. To be noted: Homo sapiens, MDA-MB-231, MDA-MB-231 cells stably expressing HMGB1-HiBiT; extracellular luminescence. It is filed as cell-based. The method, then: Construction of pBiT3.1-HMGB1 Plasmid
HMGB1 derived from pCMV6-AC-GFP plasmid (ref. RG205918, Origene) was amplified by PCR using the following set of primers: Seq ID No 1: forward, 5′-[…]-3′; Seq ID No 2: reverse, 5′-[…]-3′. The PCR fragment was subsequently digested by EcoRI and XhoI (R3101S and R0146S respectively, New England Biolabs) and inserted between the EcoRI and XhoI sites in the plasmid pBiT3.1-C(ref. N237A, Promega). The resulting plasmid (pBiT3.1-HMGB1) was grown in NEB10-beta competent E. coli (ref. C3019I, New England Biolabs) and purified using the NucleoBond Xtra Midi Kit (ref. 740410, Macherey-Nagel).
Construction of HMGB1 Reporter Cell Line
pBiT3.1-HMGB1 was transfected in MDA-MB-231 cells (ref. ATCC HTB-2) using Lipofectamine 2000 reagent (ref. 11668, Invitrogen). Transfected cells were selected for blasticidin resistance (15 μg/ml, ref. Al 113903 Gibco) in medium containing DMEM 1× (ref. 1995065, Gibco) with 1% penicillin and streptomycin, and 10% fetal bovine serum.
Screen for HMGB1-Releasing Drugs
MDA-MB-231 cells stably expressing HMGB1-HiBiT (10^4 cells/well) were seeded into white 96-well plates (ref.3917, Corning) and allowed to recover for 24h. […] Mitoxantrone dihydrochloride (ref. M6545, Sigma-Aldrich) was used as a positive control. Extracellular translocation of HMGB1 was measured using the Nano-Glo HiBiT extracellular detection system (ref. N2422, Promega). Nano-Glo HiBiT Extracellular Reagent was prepared in advance, added to the well and incubated 10 min. Luminescence of the extracellular HMGB1-HiBiT was quantified using the Spark 20M spectrofluorimeter (TECAN)

On to `Cc1cccc2c1CCCN2Cc1nc2ccc(Cl)cc2c(=O)[nH]1` [Ex. #53, 6-chloro-2-[(5-methyl-3,4-dihydro-2H-quinolin-1-yl)methyl]-3H-quinazolin-4-one], for which the EC50 is 730 nM with Calreticulin and 2510 nM in the test on HMGB1.

Regarding `COc1ccc2c(c1)N(Cc1nc3ccc(Cl)cc3c(=O)[nH]1)CCC2` [Ex. #55, 6-chloro-2-[(7-methoxy-3,4-dihydro-2H-quinolin-1-yl)methyl]-3H-quinazolin-4-one], the EC50 in the test with Calreticulin amounted to 11300 nM; in the test on HMGB1 it was 10800 nM.

For `O=c1[nH]c(CN2CCOc3ccccc32)nc2ccc(Cl)cc12` [Ex. #57, 6-chloro-2-(2,3-dihydro-1,4-benzoxazin-4-ylmethyl)-3H-quinazolin-4-one], the EC50 in the test with Calreticulin amounted to 14200 nM; in the test with HMGB1, 11900 nM.

`O=c1[nH]c(CN2CCc3ccccc3C2)nc2ccc(Cl)cc12` [Ex. #59, 6-chloro-2-(3,4-dihydro-1H-isoquinolin-2-ylmethyl)-3H-quinazolin-4-one]: the EC50 turned out to be 4410 nM with Calreticulin and 7510 nM in the test on HMGB1.

Consider `Cc1ccc2c(c1)CN(Cc1nc3ccc(Cl)cc3c(=O)[nH]1)CC2` [Ex. #60, 6-chloro-2-[(7-methyl-3,4-dihydro-1H-isoquinolin-2-yl)methyl]-3H-quinazolin-4-one], for which the EC50 in the test with Calreticulin is 870 nM; in the test on HMGB1, 9360 nM.

With `COc1ccc(OC)c2c1CN(Cc1nc3ccc(Cl)cc3c(=O)[nH]1)CC2O` (centres unmarked) [Ex. #61, 6-chloro-2-[(4-hydroxy-5,8-dimethoxy-3,4-dihydro-1H-isoquinolin-2-yl)methyl]-3H-quinazolin-4-one], the EC50 with Calreticulin was determined as 450 nM; with HMGB1, 3860 nM.

Turning to `O=c1[nH]c(CN2CCCCc3ccccc32)nc2ccc(Cl)cc12` [Ex. #62, 6-chloro-2-(2,3,4,5-tetrahydro-1-benzazepin-1-ylmethyl)-3H-quinazolin-4-one], the results for the EC50 with Calreticulin and in the test with HMGB1 were 960 nM and 1060 nM, respectively.

Consider `CN1CCCN(Cc2nc3ccc(Cl)cc3c(=O)[nH]2)c2ccccc21` [Ex. #63, 6-chloro-2-[(1-methyl-3,4-dihydro-2H-1,5-benzodiazepin-5-yl)methyl]-3H-quinazolin-4-one], for which the EC50 in the test with Calreticulin stood at 3860 nM; with HMGB1, 4260 nM.

In the case of `O=c1[nH]c(CN2CCCOc3ccccc32)nc2ccc(Cl)cc12` [Ex. #64, 6-chloro-2-(3,4-dihydro-2H-1,5-benzoxazepin-5-ylmethyl)-3H-quinazolin-4-one], the concentration for a half-maximal effect (EC50) was found to be 2460 nM in the test with Calreticulin and 5310 nM in the test with HMGB1.

In the case of `CN(C)c1ccc2nc(CN3CCc4ccccc43)[nH]c(=O)c2c1` [Ex. #73, 6-(dimethylamino)-2-(indolin-1-ylmethyl)-3H-quinazolin-4-one], the EC50 in the test on Calreticulin was 253 nM; in the test on HMGB1, 275 nM.

On to `CN(C)c1ccc2nc(CN3CC(C)(C)c4ccccc43)[nH]c(=O)c2c1` [Ex. #74, 6-(dimethylamino)-2-[(3,3-dimethylindolin-1-yl)methyl]-3H-quinazolin-4-one], for which the EC50 came out at 200 nM in the test with Calreticulin and 210 nM in the test with HMGB1.

Regarding `COc1cc2c(=O)[nH]c(CN3CCc4ccccc43)nc2cc1F` [Ex. #76, 7-fluoro-2-(indolin-1-ylmethyl)-6-methoxy-3H-quinazolin-4-one], the EC50 in the test with Calreticulin came out at 292 nM; in the test with HMGB1, 594 nM.

For `O=c1[nH]c(CN2CCc3ccccc32)nc2ccc(OC(F)(F)F)cc12` [Ex. #82, 2-(indolin-1-ylmethyl)-6-(trifluoromethoxy)-3H-quinazolin-4-one], the figures for the EC50 in the test on Calreticulin and in the test with HMGB1 were 1380 nM and 1170 nM, respectively.

As to `COc1cc2nc(CN3CCc4ccccc43)[nH]c(=O)c2cc1OC` [Ex. #83, 2-(indolin-1-ylmethyl)-6,7-dimethoxy-3H-quinazolin-4-one], the EC50 in the test with Calreticulin is 1610 nM; in the test on HMGB1, 1440 nM.

Turning to `Cc1ccc2nc(CN3CCc4ccccc43)[nH]c(=O)c2c1` [Ex. #84, 2-(indolin-1-ylmethyl)-6-methyl-3H-quinazolin-4-one], the EC50 came out at 695 nM in the test with Calreticulin and 2630 nM in the test on HMGB1.

Regarding `O=c1[nH]c(CN2CCc3ccccc32)nc2ccc(C(F)(F)F)cc12` [Ex. #85, 2-(indolin-1-ylmethyl)-6-(trifluoromethyl)-3H-quinazolin-4-one], the EC50 in the test with Calreticulin is 1960 nM; in the test with HMGB1, 3560 nM.

As to `COc1ccc2c(=O)[nH]c(CN3CCc4ccccc43)nc2c1` [Ex. #86, 2-(indolin-1-ylmethyl)-7-methoxy-3H-quinazolin-4-one], the EC50 was found to be 2560 nM in the test on Calreticulin and 3860 nM in the test with HMGB1.

As for `CC(C)Oc1ccc2nc(CN3CCc4ccccc43)[nH]c(=O)c2c1` [Ex. #87, 2-(indolin-1-ylmethyl)-6-isopropoxy-3H-quinazolin-4-one], the EC50 worked out at 2160 nM in the test on Calreticulin and 3960 nM in the test with HMGB1.

With `O=c1[nH]c(CN2CCc3ccccc32)nc2cc(Cl)ccc12` [Ex. #89, 7-chloro-2-(indolin-1-ylmethyl)-3H-quinazolin-4-one], the EC50 in the test with Calreticulin stood at 8260 nM; in the test with HMGB1, 6260 nM.

For `O=c1[nH]c(CN2CCc3ccccc32)nc2cc(C(F)(F)F)ccc12` [Ex. #91, 2-(indolin-1-ylmethyl)-7-(trifluoromethyl)-3H-quinazolin-4-one], the EC50 with Calreticulin was 8110 nM; with HMGB1, 10100 nM.

For the molecule `COc1cc2c(=O)[nH]c(CN3CC(C)(C)c4ccccc43)nc2cc1Cl` [Ex. #93, 7-chloro-2-[(3,3-dimethylindolin-1-yl)methyl]-6-methoxy-3H-quinazolin-4-one], the EC50 came out at 97.5 nM with Calreticulin and 150 nM in the test on HMGB1.

`COc1cc(OC)c2nc(CN3CC(C)(C)c4ccccc43)[nH]c(=O)c2c1` [Ex. #94, 2-[(3,3-dimethylindolin-1-yl)methyl]-6,8-dimethoxy-3H-quinazolin-4-one]: the EC50 in the test on Calreticulin turned out to be 3060 nM; in the test with HMGB1, 5760 nM.

For the molecule `COCCOc1ccc2nc(CN3CC(C)(C)c4ccccc43)[nH]c(=O)c2c1` [Ex. #97, 2-[(3,3-dimethylindolin-1-yl)methyl]-6-(2-methoxyethoxy)-3H-quinazolin-4-one], the EC50 in the test with Calreticulin was determined as 7360 nM; with HMGB1, 7560 nM.

`O=c1[nH]c(CN2CCc3ccccc32)nc2ccc(C3CC3)cc12` [Ex. #99, 6-cyclopropyl-2-(indolin-1-ylmethyl)-3H-quinazolin-4-one]: the half-maximal effective concentration (EC50) in the test with Calreticulin and in the test with HMGB1 was 97.5 nM throughout.

With `O=c1[nH]c(CN2CCc3ccccc32)nc2ccc(N3CCC3)cc12` [Ex. #100, 6-(azetidin-1-yl)-2-(indolin-1-ylmethyl)-3H-quinazolin-4-one], the EC50 with Calreticulin came out at 230 nM; in the test with HMGB1, 250 nM.

As to `COC1CN(c2ccc3nc(CN4CCc5ccccc54)[nH]c(=O)c3c2)C1` [Ex. #101, 2-(indolin-1-ylmethyl)-6-(3-methoxyazetidin-1-yl)-3H-quinazolin-4-one], the concentration giving a half-maximal response (EC50) with Calreticulin was 10000 nM; in the test on HMGB1 it was 10200 nM.

Take `O=c1[nH]c(CN2CCc3ccccc32)nc2ccc(N3CCCC3)cc12` [Ex. #102, 2-(indolin-1-ylmethyl)-6-pyrrolidin-1-yl-3H-quinazolin-4-one]: the EC50 came to 595 nM in the test with Calreticulin and 1370 nM in the test on HMGB1.

Consider `COCC1CCN(c2ccc3nc(CN4CCc5ccccc54)[nH]c(=O)c3c2)C1` (centres unmarked) [Ex. #103, 2-(indolin-1-ylmethyl)-6-[3-(methoxymethyl)pyrrolidin-1-yl]-3H-quinazolin-4-one], for which the EC50 in the test on Calreticulin came out at 518 nM; in the test with HMGB1 it was 858 nM.

A word on the EC50: it is the midpoint of the concentration-response curve.
